Test [1] has as its target Glycogen synthase kinase-3 beta (Homo sapiens, UniProt P49841).
The target of test [2] is Calcium/calmodulin-dependent protein kinase type II subunit delta (Homo sapiens) (UniProt Q13557).
Test [3] concerns the target Casein kinase I isoform gamma-2 (Homo sapiens) (UniProt P78368).
The target in test [4] is TRAF2 and NCK-interacting protein kinase (Homo sapiens) (UniProt Q9UKE5).
Test [5] addresses Serine/threonine-protein kinase 25 (Homo sapiens) (UniProt O00506).
In test [6] the target is Tyrosine-protein kinase JAK1 (Homo sapiens) (UniProt P23458).
Test [7] concerns the target Casein kinase I isoform gamma-1 (Homo sapiens) (UniProt Q9HCP0).
In test [8] the target is Casein kinase I isoform gamma-3 (Homo sapiens) (UniProt Q9Y6M4).
Casein kinase I isoform gamma-3 (Homo sapiens), sequence (Q9Y6M4 whole entry, looked up, canonical isoform): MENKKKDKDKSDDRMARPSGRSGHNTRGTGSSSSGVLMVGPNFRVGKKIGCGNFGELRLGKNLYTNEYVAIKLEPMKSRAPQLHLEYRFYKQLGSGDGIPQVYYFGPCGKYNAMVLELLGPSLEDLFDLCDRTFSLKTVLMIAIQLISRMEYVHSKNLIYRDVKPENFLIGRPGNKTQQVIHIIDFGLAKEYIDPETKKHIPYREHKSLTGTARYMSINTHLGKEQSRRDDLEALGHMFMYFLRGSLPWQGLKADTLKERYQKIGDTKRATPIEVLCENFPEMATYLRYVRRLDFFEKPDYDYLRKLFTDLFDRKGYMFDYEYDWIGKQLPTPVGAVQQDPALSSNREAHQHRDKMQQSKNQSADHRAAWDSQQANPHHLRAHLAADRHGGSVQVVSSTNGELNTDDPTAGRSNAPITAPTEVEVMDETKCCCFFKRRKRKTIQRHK
In test [9] the target is T1, Serine/threonine-protein kinase PLK4 (Homo sapiens) (UniProt O00444).
T1 sequence (whole entry): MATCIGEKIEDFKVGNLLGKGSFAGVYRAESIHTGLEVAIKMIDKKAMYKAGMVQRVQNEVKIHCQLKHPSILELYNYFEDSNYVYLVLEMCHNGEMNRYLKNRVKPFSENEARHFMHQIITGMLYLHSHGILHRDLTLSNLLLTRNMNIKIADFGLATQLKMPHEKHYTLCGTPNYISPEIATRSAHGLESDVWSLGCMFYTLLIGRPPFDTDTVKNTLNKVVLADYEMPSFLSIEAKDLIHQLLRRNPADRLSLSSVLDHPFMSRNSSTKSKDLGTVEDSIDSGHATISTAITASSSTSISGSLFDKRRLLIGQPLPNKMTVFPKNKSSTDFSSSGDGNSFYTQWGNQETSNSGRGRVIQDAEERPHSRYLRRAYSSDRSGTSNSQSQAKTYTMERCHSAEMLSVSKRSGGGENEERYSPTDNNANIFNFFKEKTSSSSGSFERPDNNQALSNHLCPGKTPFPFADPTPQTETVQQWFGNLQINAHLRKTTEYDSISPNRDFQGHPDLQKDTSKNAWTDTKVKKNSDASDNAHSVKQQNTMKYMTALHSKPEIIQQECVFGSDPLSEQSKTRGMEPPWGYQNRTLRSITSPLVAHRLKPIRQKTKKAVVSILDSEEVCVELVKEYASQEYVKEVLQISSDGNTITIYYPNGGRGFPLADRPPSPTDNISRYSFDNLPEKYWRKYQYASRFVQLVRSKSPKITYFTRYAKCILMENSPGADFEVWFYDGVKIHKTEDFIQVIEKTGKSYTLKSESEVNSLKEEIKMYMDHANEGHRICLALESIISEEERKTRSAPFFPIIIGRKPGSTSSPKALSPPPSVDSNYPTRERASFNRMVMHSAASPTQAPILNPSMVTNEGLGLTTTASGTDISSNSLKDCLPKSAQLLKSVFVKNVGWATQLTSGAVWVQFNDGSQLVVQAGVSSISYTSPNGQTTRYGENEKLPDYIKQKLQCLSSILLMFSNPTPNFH

Test [10] deals with Calcium/calmodulin-dependent protein kinase type II subunit gamma (Homo sapiens) (UniProt Q13555).
Calcium/calmodulin-dependent protein kinase type II subunit gamma (Homo sapiens), sequence (Q13555 whole entry): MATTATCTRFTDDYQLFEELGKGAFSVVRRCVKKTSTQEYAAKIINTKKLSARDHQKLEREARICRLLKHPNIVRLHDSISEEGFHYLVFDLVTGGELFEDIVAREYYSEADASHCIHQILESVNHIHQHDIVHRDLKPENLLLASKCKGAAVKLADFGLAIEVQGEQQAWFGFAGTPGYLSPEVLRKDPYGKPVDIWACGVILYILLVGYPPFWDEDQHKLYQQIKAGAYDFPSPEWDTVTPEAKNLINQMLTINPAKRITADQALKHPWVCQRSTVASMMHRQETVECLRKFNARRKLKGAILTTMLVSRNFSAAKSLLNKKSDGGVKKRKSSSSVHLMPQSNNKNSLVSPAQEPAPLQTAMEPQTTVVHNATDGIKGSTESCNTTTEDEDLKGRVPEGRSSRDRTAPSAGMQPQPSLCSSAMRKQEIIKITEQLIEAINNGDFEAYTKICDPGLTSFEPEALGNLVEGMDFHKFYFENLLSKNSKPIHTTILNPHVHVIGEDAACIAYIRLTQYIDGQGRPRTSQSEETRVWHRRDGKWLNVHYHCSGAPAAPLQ
In test [11] the target is 5'-AMP-activated protein kinase catalytic subunit alpha-2 (Homo sapiens) (UniProt P54646).
Test [12] concerns the target Serine/threonine-protein kinase pim-2 (Homo sapiens, UniProt Q9P1W9).
The target of test [13] is Dual specificity mitogen-activated protein kinase kinase 2 (Homo sapiens, UniProt P36507).
Test [14] concerns the target Calcium/calmodulin-dependent protein kinase kinase 2 (Homo sapiens, UniProt Q96RR4).
Test [15] deals with Ribosomal protein S6 kinase alpha-3 (Homo sapiens) (UniProt P51812).
Ribosomal protein S6 kinase alpha-3 (Homo sapiens), sequence (P51812 whole entry): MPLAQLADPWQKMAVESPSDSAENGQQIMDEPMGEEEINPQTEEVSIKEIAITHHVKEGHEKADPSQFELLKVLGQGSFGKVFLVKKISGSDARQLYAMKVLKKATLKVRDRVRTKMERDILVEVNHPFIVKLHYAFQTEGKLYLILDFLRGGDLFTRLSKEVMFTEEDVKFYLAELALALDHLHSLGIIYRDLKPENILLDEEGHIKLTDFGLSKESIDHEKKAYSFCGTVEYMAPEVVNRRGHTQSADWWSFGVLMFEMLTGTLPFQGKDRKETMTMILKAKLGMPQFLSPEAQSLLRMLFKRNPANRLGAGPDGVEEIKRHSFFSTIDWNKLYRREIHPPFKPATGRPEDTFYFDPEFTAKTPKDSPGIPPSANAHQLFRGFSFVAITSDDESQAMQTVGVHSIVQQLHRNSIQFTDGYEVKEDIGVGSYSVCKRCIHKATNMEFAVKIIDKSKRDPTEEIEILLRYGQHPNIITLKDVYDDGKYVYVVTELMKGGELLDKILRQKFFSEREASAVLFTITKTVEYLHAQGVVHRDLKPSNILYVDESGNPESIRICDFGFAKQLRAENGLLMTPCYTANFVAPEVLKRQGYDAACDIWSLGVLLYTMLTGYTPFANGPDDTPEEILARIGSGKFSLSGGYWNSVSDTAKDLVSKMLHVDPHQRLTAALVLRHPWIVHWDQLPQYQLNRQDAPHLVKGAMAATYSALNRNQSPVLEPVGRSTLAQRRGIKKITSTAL
Test [16] concerns the target T2, Serine/threonine-protein kinase VRK1 (Homo sapiens) (UniProt Q99986).
T2 sequence (whole entry): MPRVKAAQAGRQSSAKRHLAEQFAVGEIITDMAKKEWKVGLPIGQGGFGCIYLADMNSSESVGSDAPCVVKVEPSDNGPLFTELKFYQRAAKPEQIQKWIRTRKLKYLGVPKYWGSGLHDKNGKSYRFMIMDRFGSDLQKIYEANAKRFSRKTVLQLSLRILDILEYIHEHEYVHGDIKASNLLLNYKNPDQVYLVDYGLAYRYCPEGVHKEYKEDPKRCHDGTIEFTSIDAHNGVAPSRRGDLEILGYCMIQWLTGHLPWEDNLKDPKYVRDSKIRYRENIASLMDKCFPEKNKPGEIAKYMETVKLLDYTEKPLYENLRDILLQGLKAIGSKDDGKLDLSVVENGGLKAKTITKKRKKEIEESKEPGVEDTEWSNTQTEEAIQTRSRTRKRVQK

Test [17] deals with Calcium/calmodulin-dependent protein kinase type 1G (Homo sapiens) (UniProt Q96NX5).
For test [18], the target named is T3, Calcium/calmodulin-dependent protein kinase type IV (Homo sapiens) (UniProt Q16566).
T3 sequence (whole entry): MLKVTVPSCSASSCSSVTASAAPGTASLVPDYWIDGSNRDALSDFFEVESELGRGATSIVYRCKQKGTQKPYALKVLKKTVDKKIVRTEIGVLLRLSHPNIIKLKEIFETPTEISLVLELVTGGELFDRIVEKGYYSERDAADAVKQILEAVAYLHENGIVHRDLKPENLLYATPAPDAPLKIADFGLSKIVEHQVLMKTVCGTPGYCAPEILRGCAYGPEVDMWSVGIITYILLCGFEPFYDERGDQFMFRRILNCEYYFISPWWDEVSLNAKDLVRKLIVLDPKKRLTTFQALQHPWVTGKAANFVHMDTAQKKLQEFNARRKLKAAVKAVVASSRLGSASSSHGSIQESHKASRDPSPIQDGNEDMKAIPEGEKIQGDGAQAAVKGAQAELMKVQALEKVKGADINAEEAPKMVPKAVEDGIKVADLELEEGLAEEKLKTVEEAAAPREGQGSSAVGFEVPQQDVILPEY

Test [19] addresses Mitogen-activated protein kinase 6 (Homo sapiens) (UniProt Q16659).
Test [20] concerns the target Dual specificity protein kinase CLK3 (Homo sapiens) (UniProt P49761).

Calcium/calmodulin-dependent protein kinase kinase 2, sequence (Q96RR4 2-588 limits assumed): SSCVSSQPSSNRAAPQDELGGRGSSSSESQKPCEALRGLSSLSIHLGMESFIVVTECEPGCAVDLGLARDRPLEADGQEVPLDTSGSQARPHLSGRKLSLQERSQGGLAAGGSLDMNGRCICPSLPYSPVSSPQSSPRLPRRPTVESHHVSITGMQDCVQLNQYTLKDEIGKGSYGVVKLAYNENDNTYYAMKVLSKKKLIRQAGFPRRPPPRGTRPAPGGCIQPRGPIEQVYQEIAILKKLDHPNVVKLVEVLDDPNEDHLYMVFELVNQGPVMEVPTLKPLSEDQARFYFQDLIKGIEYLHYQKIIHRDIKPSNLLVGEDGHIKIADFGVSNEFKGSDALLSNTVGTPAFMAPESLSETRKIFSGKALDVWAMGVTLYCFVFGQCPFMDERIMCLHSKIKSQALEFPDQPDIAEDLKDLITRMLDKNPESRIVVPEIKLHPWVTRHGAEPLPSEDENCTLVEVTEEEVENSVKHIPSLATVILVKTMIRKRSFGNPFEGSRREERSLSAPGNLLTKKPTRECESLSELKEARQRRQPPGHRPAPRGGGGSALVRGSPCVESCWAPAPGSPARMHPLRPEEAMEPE
Dual specificity protein kinase CLK3 (Homo sapiens), sequence (P49761 whole entry, looked up): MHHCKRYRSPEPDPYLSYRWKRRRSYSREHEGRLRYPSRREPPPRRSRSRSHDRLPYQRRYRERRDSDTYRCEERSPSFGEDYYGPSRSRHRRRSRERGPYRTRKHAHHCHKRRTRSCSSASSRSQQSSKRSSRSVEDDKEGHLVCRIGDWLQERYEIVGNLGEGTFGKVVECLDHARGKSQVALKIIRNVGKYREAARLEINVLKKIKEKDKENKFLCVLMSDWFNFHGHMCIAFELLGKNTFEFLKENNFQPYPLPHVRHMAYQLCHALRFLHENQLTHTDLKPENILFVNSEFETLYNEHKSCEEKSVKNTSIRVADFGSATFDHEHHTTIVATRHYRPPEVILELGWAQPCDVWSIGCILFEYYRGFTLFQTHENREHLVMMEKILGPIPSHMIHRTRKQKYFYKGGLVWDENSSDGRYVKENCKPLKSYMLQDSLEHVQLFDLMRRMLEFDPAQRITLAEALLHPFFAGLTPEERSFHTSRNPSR
Glycogen synthase kinase-3 beta, sequence (P49841 whole entry, looked up): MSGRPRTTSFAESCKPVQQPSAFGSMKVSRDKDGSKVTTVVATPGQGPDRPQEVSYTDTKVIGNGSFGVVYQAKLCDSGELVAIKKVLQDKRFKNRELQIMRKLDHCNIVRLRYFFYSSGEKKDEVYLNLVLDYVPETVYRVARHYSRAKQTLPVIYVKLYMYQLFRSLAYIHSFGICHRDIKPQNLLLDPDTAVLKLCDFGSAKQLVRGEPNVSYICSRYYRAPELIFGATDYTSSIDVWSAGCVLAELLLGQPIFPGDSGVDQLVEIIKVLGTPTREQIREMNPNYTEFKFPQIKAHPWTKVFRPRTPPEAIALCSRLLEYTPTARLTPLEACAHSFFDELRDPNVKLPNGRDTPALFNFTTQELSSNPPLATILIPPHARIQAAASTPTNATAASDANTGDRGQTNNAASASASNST
TRAF2 and NCK-interacting protein kinase (Homo sapiens), sequence (Q9UKE5 whole entry, looked up): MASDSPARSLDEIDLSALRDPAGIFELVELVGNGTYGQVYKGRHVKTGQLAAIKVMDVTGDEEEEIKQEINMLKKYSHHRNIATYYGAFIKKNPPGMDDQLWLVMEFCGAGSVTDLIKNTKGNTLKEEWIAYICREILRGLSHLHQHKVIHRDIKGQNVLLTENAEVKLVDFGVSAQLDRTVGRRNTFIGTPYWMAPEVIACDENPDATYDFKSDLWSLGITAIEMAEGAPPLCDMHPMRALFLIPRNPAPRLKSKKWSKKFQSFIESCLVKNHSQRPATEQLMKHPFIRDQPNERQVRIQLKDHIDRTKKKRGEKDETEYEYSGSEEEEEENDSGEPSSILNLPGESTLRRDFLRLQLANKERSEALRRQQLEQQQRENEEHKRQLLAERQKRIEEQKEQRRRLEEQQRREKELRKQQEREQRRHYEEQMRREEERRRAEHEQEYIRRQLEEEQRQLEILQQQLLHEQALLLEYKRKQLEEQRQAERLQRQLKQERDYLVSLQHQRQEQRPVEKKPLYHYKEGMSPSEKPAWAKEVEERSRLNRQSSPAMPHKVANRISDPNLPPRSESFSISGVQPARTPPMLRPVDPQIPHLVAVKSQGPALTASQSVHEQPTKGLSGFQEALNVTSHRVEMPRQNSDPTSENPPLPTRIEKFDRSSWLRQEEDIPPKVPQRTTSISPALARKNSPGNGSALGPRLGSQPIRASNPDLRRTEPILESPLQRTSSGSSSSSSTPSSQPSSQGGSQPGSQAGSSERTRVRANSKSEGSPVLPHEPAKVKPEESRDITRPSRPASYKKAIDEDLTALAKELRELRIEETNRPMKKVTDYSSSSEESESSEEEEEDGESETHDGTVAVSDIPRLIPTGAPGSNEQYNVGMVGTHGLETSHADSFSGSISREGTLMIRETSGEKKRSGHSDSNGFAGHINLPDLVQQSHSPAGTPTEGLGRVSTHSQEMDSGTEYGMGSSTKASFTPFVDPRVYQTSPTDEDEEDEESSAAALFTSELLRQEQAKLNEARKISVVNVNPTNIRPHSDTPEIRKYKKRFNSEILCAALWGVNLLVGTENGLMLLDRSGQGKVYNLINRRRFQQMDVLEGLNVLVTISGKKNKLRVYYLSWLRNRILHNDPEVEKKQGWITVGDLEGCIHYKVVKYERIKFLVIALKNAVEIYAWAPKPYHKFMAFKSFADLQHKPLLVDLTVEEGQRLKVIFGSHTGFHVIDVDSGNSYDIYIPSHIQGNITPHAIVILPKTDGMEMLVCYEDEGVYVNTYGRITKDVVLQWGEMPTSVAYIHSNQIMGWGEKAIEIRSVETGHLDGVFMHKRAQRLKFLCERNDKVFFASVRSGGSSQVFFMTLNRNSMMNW
Casein kinase I isoform gamma-2 (Homo sapiens), sequence (P78368 whole entry, looked up, canonical isoform): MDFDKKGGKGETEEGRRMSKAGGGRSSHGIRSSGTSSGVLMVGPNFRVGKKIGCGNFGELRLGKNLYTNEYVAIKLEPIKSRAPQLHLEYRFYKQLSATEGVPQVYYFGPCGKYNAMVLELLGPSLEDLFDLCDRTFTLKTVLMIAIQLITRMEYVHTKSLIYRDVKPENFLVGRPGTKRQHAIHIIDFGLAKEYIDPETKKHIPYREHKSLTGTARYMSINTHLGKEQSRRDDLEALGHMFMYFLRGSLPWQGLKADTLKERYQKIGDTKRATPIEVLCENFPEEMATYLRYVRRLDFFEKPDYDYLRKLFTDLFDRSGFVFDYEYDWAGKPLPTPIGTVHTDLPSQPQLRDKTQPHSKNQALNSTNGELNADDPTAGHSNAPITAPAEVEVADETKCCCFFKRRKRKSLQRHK

In general, ΔTm refers to the shift of the melting midpoint relative to a reference. Consider `O=[N+]([O-])c1ccc(-c2nc(-c3ccc(F)cc3)c(-c3ccncc3)[nH]2)cc1`, for which the ΔTm stood at 6.9 °C in test [1]; 0.1 °C in test [2]; 1.7 °C in test [3]; 4.6 °C in test [4]; 0.9 °C in [5]; 3.7 °C in test [6]. The ΔTm in [7] is 3 °C; in test [8], 2.6 °C; in [9] it was 1.8 °C; in test [10], -0.3 °C; in test [11], -0.4 °C; in test [12], 0.5 °C. Moreover, the shift in melting temperature (ΔTm) is 0.3 °C in test [13]; -0.5 °C in test [14]; 1.8 °C in test [15]; 0 °C in [16]; -0.2 °C in [17]; -0.2 °C in test [18]. Besides, the shift in melting temperature (ΔTm) in test [19] worked out at 0.4 °C; in test [20] it was 0.1 °C.

Turning to `CC(C)c1cc(/C=C(\C#N)C(=O)NCCCc2ccccc2)cc(C(C)C)c1O`, the ΔTm in test [1] was -1.2 °C; in [2], 1 °C; in test [3] it was 0.5 °C; in test [4], 0 °C; in test [5], 0.7 °C; in test [6], 0.1 °C. For the same molecule, the ΔTm in test [7] was 0.8 °C; in test [8] it was 0.7 °C; in test [9], 0.9 °C; in test [10], 0.5 °C; in test [11], -0.8 °C; in test [12] it was 0.7 °C. The shift in melting temperature (ΔTm) in [13] was found to be 0.3 °C; in [14], 1 °C; in test [15] it was 1 °C; in test [16], 1 °C; in test [17], 2.8 °C; in [18] it was 1.2 °C. For the same molecule, the values for the ΔTm in [19] and in test [20] were 1.3 °C and 1.2 °C, respectively.

Consider `CC(C)n1cnc2c(NCc3ccccc3)nc(NCCCO)nc21`, for which the shift in melting temperature (ΔTm) was 0.5 °C in [1]; -0.1 °C in test [2]; 1.1 °C in test [3]; 0.4 °C in [4]; 0.1 °C in test [5]; 0.4 °C in test [6]. Besides, the shift in melting temperature (ΔTm) in test [7] is 1.4 °C; in test [8] it was 1.1 °C; in [9], 0.3 °C; in [10] it was 0.3 °C; in test [11], -0.7 °C; in test [12], 0.2 °C. For the same molecule, the thermal shift (ΔTm) in test [13] was -0.3 °C; in test [14] it was 2 °C; in [15] it was 1 °C; in test [16] it was -0.1 °C; in test [17], 0.2 °C; in [18] it was 0.4 °C. In addition, the ΔTm in test [19] was -0.3 °C; in [20], 1 °C.

For `O=C1Nc2ccc(I)cc2/C1=C1/Nc2ccccc2/C1=N\O`, the ΔTm in test [1] came to 8.8 °C; in test [2], 3.6 °C; in test [3], 1.9 °C; in test [4], 5.2 °C; in [5] it was 3.2 °C; in test [6], 8.3 °C. Further, the thermal shift (ΔTm) is 1.5 °C in test [7]; 1.8 °C in [8]; 8.7 °C in test [9]; 5.4 °C in test [10]; 6.8 °C in test [11]; -0.5 °C in test [12]. The ΔTm in [13] came to 6.4 °C; in test [14], 6.9 °C; in test [15], 2.7 °C; in [16] it was 0.1 °C; in test [17], 0.5 °C; in test [18] it was 2.6 °C. For the same molecule, the figures for the thermal shift (ΔTm) in test [19] and in test [20] were 0.5 °C and 3.5 °C, respectively.

On to `CCOc1cc(/C=C(\C#N)C(N)=O)cc(CSc2ccccc2)c1O`, for which the ΔTm was 1.1 °C in test [1]; -0.2 °C in [2]; 0.7 °C in test [3]; 0.2 °C in test [4]; 0.6 °C in test [5]; 4.3 °C in test [6]. Also, the ΔTm in test [7] is 0.2 °C; in test [8], 0.4 °C; in test [9], 2.8 °C; in [10] it was -0.1 °C; in test [11] it was 0 °C; in test [12], 0.1 °C. The thermal shift (ΔTm) in [13] was 0.4 °C; in test [14] it was -0.1 °C; in test [15] it was 2.1 °C; in [16], -0.1 °C; in [17], 0 °C; in test [18], 0.1 °C. The ΔTm was found to be 0.1 °C in test [19] and 0.3 °C in [20].

Turning to `NC1=NC(=O)/C(=C2\CCNC(=O)c3[nH]c(Br)cc32)N1` [HYMENIALDISINE], the ΔTm stood at 7.4 °C in [1]; 0 °C in test [2]; 5.6 °C in test [3]; 4.7 °C in test [4]; 3.5 °C in test [5]; 0.2 °C in test [6]. Moreover, the ΔTm in test [7] was found to be 5.7 °C; in test [8], 3.5 °C; in test [9] it was 3 °C; in test [10], 0.2 °C; in [11], 1 °C; in test [12], 3.7 °C. Further, the shift in melting temperature (ΔTm) is 2 °C in test [13]; 3.4 °C in [14]; 4.2 °C in [15]; 2 °C in test [16]; -0.2 °C in test [17]; 0.1 °C in test [18]. The thermal shift (ΔTm) in test [19] is -0.1 °C; in [20], 8.3 °C.

For `OC[C@H]1O[C@@H](n2cnc3cc(Cl)c(Cl)cc32)[C@H](O)[C@@H]1O`, the ΔTm in [1] is 0.7 °C; in [2] it was -0.2 °C; in test [3], 0.6 °C; in test [4], 0.2 °C; in test [5], 0 °C; in test [6] it was 0 °C. Also, the ΔTm in [7] is 0.7 °C; in test [8] it was 1 °C; in test [9], 0.5 °C; in [10] it was 0.1 °C; in test [11], -0.7 °C; in test [12] it was 2.6 °C. Besides, the ΔTm in test [13] was -0.3 °C; in [14], 0.6 °C; in [15] it was 1.3 °C; in test [16], -0.1 °C; in [17] it was -0.1 °C; in [18], 0.2 °C. The ΔTm in test [19] was -0.1 °C; in [20], 1.4 °C.
